This is an account of results in publication PMC9960553, ““Dual Anta-Inhibitors” of the A2A Adenosine Receptor and Casein Kinase CK1delta: Synthesis, Biological Evaluation, and Molecular Modeling Studies” (Pharmaceuticals, 2023).

The target of series [1] is T1, truncated CK1δ (Homo sapiens, UniProt P48730).
T1 construct: recombinant human, GST-tagged, aa 1-294; GST; purchased Merck Millipore, Merck KGaA, Darmstadt, Germany
T1 sequence (P48730 1-294): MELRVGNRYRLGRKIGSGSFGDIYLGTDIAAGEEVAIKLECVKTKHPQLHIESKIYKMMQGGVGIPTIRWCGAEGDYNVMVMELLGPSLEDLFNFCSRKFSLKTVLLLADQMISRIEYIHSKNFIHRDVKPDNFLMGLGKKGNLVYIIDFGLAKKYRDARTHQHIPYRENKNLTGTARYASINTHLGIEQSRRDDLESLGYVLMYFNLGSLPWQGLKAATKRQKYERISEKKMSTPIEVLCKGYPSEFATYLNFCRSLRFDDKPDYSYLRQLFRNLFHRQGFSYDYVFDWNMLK
Kind of series: CK1δ luminescent kinase assay (Kinase-Glo). Format: biochemical. Particulars: for remaining activity at 10 µM: read-out: % Residual Activity at 10 μM ± sd; for remaining activity at 40 µM: compound at 40 μM, read-out: % Residual Activity at 40 μM ± sd; for IC50: truncated CK1δ, ATP 2 μM, read-out: IC50 (μM), CK1δ inhibition. As for the experimental part:
Luminescent assays were performed in white 96-well plates in a 40 μL final volume with buffer containing 50 mM HEPES (pH 7.5), 1 mM EDTA, 1 mM EGTA, and 15 mM MgCl2. In a typical assay, 10 μL of inhibitor solution (desired concentrations were obtained by diluting a starting 10 mM solution in DMSO) and 10 μL of enzyme solution were added to the well, followed by 20 μL of assay buffer containing casein substrate (Sigma-Aldrich, Merck KGaA, Darmstadt, Germany, casein solution from bovine milk, 5% in water) and ATP, at a final concentration of 0.05% and 2 μM, respectively. […] After 60 min of incubation at 30 °C, the enzymatic reactions were stopped with the addition of 40 μL of KinaseGlo reagent. […] Data were analyzed using Excel and GraphPad Prism software (version 8.0).
Background: Kinase-Glo measures the ATP left after a reaction by luminescence.

Series [2] addresses T2, human recombinant A1AR (Homo sapiens, UniProt P30542).
T2 construct: expressed in transfected cells; host or cells: CHO cells (membranes)
T2 sequence (P30542 1-326): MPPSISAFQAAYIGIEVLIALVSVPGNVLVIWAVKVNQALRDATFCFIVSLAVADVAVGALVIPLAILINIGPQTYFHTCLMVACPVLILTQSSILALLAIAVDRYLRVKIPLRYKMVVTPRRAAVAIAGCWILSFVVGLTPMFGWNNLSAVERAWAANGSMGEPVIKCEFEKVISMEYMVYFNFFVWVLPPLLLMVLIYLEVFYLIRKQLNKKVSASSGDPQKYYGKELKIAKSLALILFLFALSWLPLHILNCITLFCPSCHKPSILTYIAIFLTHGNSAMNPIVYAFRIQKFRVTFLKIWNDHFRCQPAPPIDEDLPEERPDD
The experiment in a line: [3H]CCPA displacement binding in CHO cell membranes. To be noted: mean ± standard error, read-out: KiA1. As for the experimental part: (§1) Compounds 5, 6, 8–12, 15–21, and 23–25 were evaluated in binding studies at human recombinant A1, A2A, and A3 ARs, stably transfected in Chinese hamster ovary (CHO) cells. [^3H]CCPA (2-chloro-N^6-cyclopentylAdo), [^3H]NECA (5’-N-ethylcarboxamidoAdo), and [^3H]HEMADO (2-hexynyl-N^6-methylAdo) were used as the, respective, radioligands. All compounds were also tested at the A2BARs by inhibition of NECA-stimulated adenylyl cyclase activity, using the GloSensor cAMP assay, but none of them were active at a concentration up to 30 μM [35]. The results, together with the data of the reference adenine derivative 1, are reported in Table 2 as Ki values in μM (± standard errors). In the table, the IC50 values (μM) of the CK1δ inhibitory activity are also indicated. […] We called the compounds endowed with receptor antagonist behavior combined with an enzyme inhibitory activity “dual anta-inhibitors”.
(§2) All of the pharmacological methods followed the procedures as described earlier. In brief, the membranes for radioligand binding were prepared from CHO cells stably transfected with human adenosine receptor subtypes through two centrifugations at different speeds. The first low-speed […] centrifugation allowed for the removal of cell fragments and nuclei, while the second, performed at high speed (100,000× g), allowed for the precipitation of the crude membrane fractions. The resulting membrane pellet was resuspended in the buffer used for the respective binding experiments, frozen in liquid nitrogen, and stored in aliquots at −80 °C.
(§3) The binding affinity of the novel compounds was evaluated using radioligand competition experiments in CHO cells stably expressing hA1AR, hA2AAR, hA3AR subtypes, as early described. Results were expressed as Ki values (dissociation constants), which were calculated with the program GraphPad (GraphPad Software, San Diego, CA, USA). Each concentration was tested three–five times in duplicate and the values given as the mean ± standard error (S.E.). The potency of compounds at the hA2BAR (expressed on CHO cells) was determined through a GloSensor cAMP Assay.

For series [3], the target named is T3, human recombinant A2AAR (Homo sapiens, UniProt P29274).
T3 construct: expressed in transfected cells; host or cells: CHO cells (membranes)
T3 sequence (P29274 whole entry): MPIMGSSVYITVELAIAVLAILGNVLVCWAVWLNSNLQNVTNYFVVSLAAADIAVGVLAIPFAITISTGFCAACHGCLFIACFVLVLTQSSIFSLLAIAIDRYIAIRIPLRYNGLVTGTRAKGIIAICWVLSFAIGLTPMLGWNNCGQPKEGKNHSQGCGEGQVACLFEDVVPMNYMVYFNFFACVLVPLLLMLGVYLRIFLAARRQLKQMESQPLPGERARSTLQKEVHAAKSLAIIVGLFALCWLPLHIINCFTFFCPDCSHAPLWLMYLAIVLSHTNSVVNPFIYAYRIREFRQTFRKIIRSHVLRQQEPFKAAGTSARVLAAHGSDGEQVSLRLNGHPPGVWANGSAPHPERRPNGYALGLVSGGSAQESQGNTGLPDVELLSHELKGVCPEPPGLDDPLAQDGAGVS
Kind of series: [3H]NECA displacement binding in CHO cell membranes. Particulars: mean ± standard error, read-out: KiA2A. As for the experimental part: as §1, §2, §3

The target in series [4] is T4, human recombinant A3AR (Homo sapiens, UniProt P0DMS8).
T4 construct: expressed in transfected cells; host or cells: CHO cells (membranes)
T4 sequence (P0DMS8 1-318): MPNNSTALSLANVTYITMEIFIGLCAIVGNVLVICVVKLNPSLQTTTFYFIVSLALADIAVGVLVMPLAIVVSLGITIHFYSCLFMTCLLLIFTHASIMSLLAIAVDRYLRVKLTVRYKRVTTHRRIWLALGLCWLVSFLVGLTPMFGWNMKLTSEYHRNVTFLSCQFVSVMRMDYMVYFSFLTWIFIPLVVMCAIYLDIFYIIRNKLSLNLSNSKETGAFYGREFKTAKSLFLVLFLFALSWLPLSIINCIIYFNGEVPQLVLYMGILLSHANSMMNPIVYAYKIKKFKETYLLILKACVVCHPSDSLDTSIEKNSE
The experiment in a line: [3H]HEMADO displacement binding in CHO cell membranes. Particulars: mean ± standard error, read-out: KiA3. How it is done: as §1, §2, §3

The mark [5] stands for this setting: CK1δ residual activity, compound at 10 μM.

Usually IC50 stands for the concentration needed to halve the response being measured. In general, melting point refers to the temperature, or range, at which the solid turns liquid. In turn, `Nc1nc(Cl)nc2c1ncn2C1CCCCC1` [Compound 6, 2-chloro-9-cyclohexyl-9H-purin-6-amine] gave a melting point of 125 to 126 °C. The “% Residual Activity at 10 μM ± sd” value in series [1] (CK1δ residual activity, compound at 10 μM, 10 µM) is 52 ± 3.0%. Also, in series [1] (setting [5]), the remaining activity at 10 µM is greater than 50%. For the same compound, in series [1] (CK1δ residual activity), the remaining activity at 40 µM worked out at 30 ± 0.2%. Also, in series [1], the half-maximal inhibitory concentration (IC50) was greater than 10 µM.
Regarding `N#CCNc1nc(Cl)nc2c1ncn2C1CCCC1` [Compound 21, 2-((2-Chloro-9-cyclopentyl-9H-purin-6-yl)amino)acetonitrile], the remaining activity at 10 µM in series [1] (setting [5]) stood at 13 ± 24%. Also, in series [1] (CK1δ residual activity), the remaining activity at 40 µM turned out to be 25 ± 9.6%. In series [1], the concentration for half-maximal inhibition (IC50) stood at 0.36 ± 0.1 µM. Also, the Ki worked out at 8.66 ± 1.52 µM in series [2], 3.48 ± 0.312 µM in series [3] and 5.96 ± 1.02 µM in series [4].
Regarding `O=C(CNc1nc(Cl)nc2c1ncn2C1CCCC1)NCc1ccccc1` [Compound 20], the remaining activity at 10 µM in series [1] (setting [5]) is 32 ± 16%. Besides, the remaining activity at 40 µM in series [1] (CK1δ residual activity) was 29 ± 12%. In series [1], the IC50 came to 1.87 ± 0.2 µM. The Ki in series [2] and in series [3] was greater than 30 µM throughout.
Turning to `c1ccc(CNc2nc(NCc3nc4ccccc4[nH]3)c3ncn(C4CCCC4)c3n2)cc1` [Compound 16, N^6-((1H-benzo[d]imidazol-2-yl)methyl)-N^2-benzyl-9-cyclopentyl-9H-purine-2,6-diamine], the remaining activity at 10 µM in series [1] (setting [5]) amounted to 26 ± 7.6%. The remaining activity at 40 µM in series [1] (CK1δ residual activity) came out at 46 ± 31%. Moreover, in series [1], the IC50 came to 4.76 ± 0.3 µM. Further, the values for the Ki in series [2], in series [3] and in series [4] were greater than 30 µM, 0.718 ± 0.149 µM and 0.432 ± 0.025 µM, respectively.
As to `Clc1ccc(CCNc2nc(Cl)nc3c2ncn3C2CCCC2)cc1` [Compound 25, 2-Chloro-N-(4-chlorophenethyl)-9-cyclopentyl-9H-purin-6-amine], in series [1] (setting [5]), the remaining activity at 10 µM stood at 31 ± 12%. Further, the remaining activity at 40 µM in series [1] (CK1δ residual activity) is 14 ± 4.3%. For the same compound, the IC50 in series [1] was 1.69 ± 1 µM. In addition, the Ki worked out at 10.8 ± 2.04 µM in series [2] and 2.65 ± 0.381 µM in series [3].
Regarding `Nc1nc(NCc2ccccc2)nc2c1ncn2C1CCCC1` [Compound 10, N^2-benzyl-9-cyclopentyl-9H-purine-2,6-diamine], in series [1] (setting [5]), the remaining activity at 10 µM is 48 ± 3.5%. Further, the remaining activity at 40 µM in series [1] (CK1δ residual activity) amounted to 30 ± 4.1%. Moreover, in series [1], the IC50 was found to be 5.3 ± 1 µM. The figures for the Ki in series [2], in series [3] and in series [4] were 3.96 ± 0.8 µM, 0.157 ± 0.04 µM and 0.298 ± 0.047 µM, respectively.
Consider `Clc1nc(NCc2nc3ccccc3[nH]2)c2ncn(C3CCCC3)c2n1` [Compound 15, N-((1H-benzo[d]imidazol-2-yl)methyl)-2-chloro-9-cyclopentyl-9H-purin-6-amine], for which the remaining activity at 10 µM in series [1] (setting [5]) worked out at 24 ± 14%. In series [1] (CK1δ residual activity), the remaining activity at 40 µM turned out to be 22 ± 13%. The IC50 in series [1] turned out to be 1.53 ± 0.4 µM. The results for the Ki in series [2], in series [3] and in series [4] were greater than 30 µM, 3.26 ± 0.626 µM and 1.138 ± 0.004 µM, respectively.
As to `O=C(NCc1ccccc1)Nc1nc(Cl)nc2c1ncn2C1CCCC1` [Compound 18, 1-Benzyl-3-(2-chloro-9-cyclopentyl-9H-purin-6-yl)urea], in series [1] (setting [5]), the remaining activity at 10 µM came out at 38 ± 6%. The remaining activity at 40 µM in series [1] (CK1δ residual activity) was 29 ± 3.9%. The IC50 in series [1] is 3.37 ± 2.5 µM. For the same compound, the Ki in series [2], in series [3] and in series [4] was greater than 30 µM throughout.
For the compound `Nc1nc(NCCc2ccccc2)nc2c1ncn2C1CCCC1` [Compound 11, 9-Cyclopentyl-N^2-phenethyl-9H-purine-2,6-diamine], the remaining activity at 40 µM in series [1] (CK1δ residual activity) is 88 ± 2.9%. Further, the IC50 in series [1] is greater than 40 µM. Moreover, the Ki in series [2] stood at 0.58 ± 0.046 µM; in series [3], 0.012 ± 0.003 µM; in series [4], 0.049 ± 0.008 µM.
On to `COC(=O)CNc1nc(Cl)nc2c1ncn2C1CCCC1` [Compound 19, Methyl (2-chloro-9-cyclopentyl-9H-purin-6-yl)glycinate], for which the remaining activity at 10 µM in series [1] (setting [5]) was found to be 23 ± 2.4%. In series [1] (CK1δ residual activity), the remaining activity at 40 µM stood at 44 ± 2.6%. Further, the IC50 in series [1] amounted to 2.55 ± 0.2 µM. The results for the Ki in series [2], in series [3] and in series [4] were 20.7 ± 1.87 µM, 13.5 ± 0.98 µM and 14.8 ± 3.01 µM, respectively.
